Data published in patent US20250127905A1, “GLUTARIMIDE COMPOUND AND USE THEREOF” (MEDSHINE DISCOVERY INC., priority 2021, published 2025).
Structures can show the parent of a compound that is named as a salt.

What was measured:
[1] = Pharmacokinetic evaluation in cynomolgus monkeys; format: in vivo
Text: In this study, male cynomolgus monkeys were selected as test animals, and LC/MS/MS method was used to quantify plasma concentrations of the test compound intravenously injected or intragastrically administered to cynomolgus monkeys at different time points, so as to evaluate the pharmacokinetic profile of the test drug in cynomolgus monkeys.
Cynomolgus monkeys (male, 2 to 5 kg, Hainan Jingang Biotech Co., Ltd.).
A clarified solution of the test compound was slowly injected into cynomolgus monkeys (feeding) via the peripheral vein (vehicle: 5% DMSO/10% Solutol/85% H2O), or intragastrically administered into cynomolgus monkeys (feeding). For intravenous injection, 0.5 mL of blood was collected from the peripheral vein at 0 h (pre-administration) and 0.083 h, 0.25 h, 0.5 h, 1 h, 2 h, 4 h, 6 h, 8 h, and 24 h after administration, placed in an anticoagulant tube added with EDTA-2K, and centrifuged at 3200 g for 10 minutes at 2 to 8° C. to separate the supernatant. For oral administration, 0.5 mL of blood was collected from the peripheral vein at 0 h (pre-administration) and 0.083 h, 0.25 h, 0.5 h, 1 h, 2 h, 4 h, 6 h, 8 h, and 24 h after administration, placed in an anticoagulant tube added with EDTA-2K, and centrifuged at 3200 g for 10 minutes at 2 to 8° C. to separate the supernatant. Plasma concentrations were determined by LC-MS/MS method, and relevant pharmacokinetic parameters were calculated using Phoenix WinNonlin 6.3 pharmacokinetic software with non-compartmental model linear-log trapezoidal method.

[2] = tested on: sodium urate-induced acute gouty arthritis; test: Sodium urate-induced acute gouty arthritis in rats; format: in vivo, SD rats
Description: It is to evaluate the preventive and therapeutic effect of compounds on sodium urate-induced acute gouty arthritis in rats. Animals: 5-week-old male SD rats; source: Zhejiang Vital River Laboratory Animal Technology Co., Ltd. Experimental grouping: After 3 days of acclimatization, all animals were measured for basal hindfoot volume, arthritis index score, and bilateral hindfoot pain threshold. 50 animals were selected and divided equally into 5 groups with 10 animals each based on body weight, hindfoot volume, arthritis index, and bilateral hindfoot pain threshold. The day of initiation of administration was recorded as D-1, and intragastric administration was performed twice a day for 6 consecutive days (D-1 to […]). 1 hour after the first administration at D0 (1 day after administration), except for the blank control group, the other rats were anesthetized with isoflurane, and 50 μL (50 mg/mL) of sodium urate solution was injected into the joint cavity for modeling at the lateral posterior side of the right ankle joint, which was used as a puncture point. Joint swelling would peak after 8 to 12 hours (lasting about 72 hours). Foot volumes of the animals were measured and arthritis index (AI) scoring was performed before and 2, 5, 8, 11, 24, 48, 72, and 96 hours after the onset of inflammation; pain thresholds were measured using a bipedal balance pain tester before and 2, 24, 48, 72, and 96 hours after the onset of inflammation. Photographs of critical swelling were taken at the peak of joint swelling (8 to 12 hours) in each group of animals and retained. Foot volume measurement: Before measurement, a line was drawn at the ankle joint of a rat with a marker to mark the position, and the instrument was added with clean water and zeroed to be ready for measurement. The hind limbs of the rat were placed in the water so that the marked line at the ankle joint was on the surface of the liquid, at which time the foot pedal was pressed to read the foot volume of the rat. At the end of the measurement, the foot pedal was pressed again for zeroing to be ready for the measurement of the next rat. Arthritis index (AI): The foot volume was measured while the swelling of the modeled foot was scored. Arthritis index scoring criteria: [table] Experimental data were expressed as Mean±SD; data were statistically analyzed using IBM SPSS Statistics 21, and p<0.05 was considered a significant difference between the two groups.

[3] = Intragastric administration (5 mg/kg)
[4] = 30 mg/kg intragastric twice a day, time 0 h
[5] = 30 mg/kg intragastric twice a day, time 2 h
[6] = 30 mg/kg intragastric twice a day, time 5 h
[7] = 30 mg/kg intragastric twice a day, time 8 h
[8] = 30 mg/kg intragastric twice a day, time 11 h
[9] = 30 mg/kg intragastric twice a day, time 24 h
[10] = 30 mg/kg intragastric twice a day, time 48 h
[11] = 30 mg/kg intragastric twice a day, time 72 h
[12] = 30 mg/kg intragastric twice a day, time 96 h
[13] = 100 mg/kg intragastric twice a day, time 0 h
[14] = 100 mg/kg intragastric twice a day, time 2 h
[15] = 100 mg/kg intragastric twice a day, time 5 h
[16] = 100 mg/kg intragastric twice a day, time 8 h
[17] = 100 mg/kg intragastric twice a day, time 11 h
[18] = 100 mg/kg intragastric twice a day, time 24 h
[19] = 100 mg/kg intragastric twice a day, time 48 h
[20] = 100 mg/kg intragastric twice a day, time 72 h
[21] = 100 mg/kg intragastric twice a day, time 96 h
[22] = 200 mg/kg intragastric twice a day, time 0 h
[23] = 200 mg/kg intragastric twice a day, time 2 h
[24] = 200 mg/kg intragastric twice a day, time 5 h
[25] = 200 mg/kg intragastric twice a day, time 8 h
[26] = 200 mg/kg intragastric twice a day, time 11 h
[27] = 200 mg/kg intragastric twice a day, time 24 h
[28] = 200 mg/kg intragastric twice a day, time 48 h
[29] = 200 mg/kg intragastric twice a day, time 72 h
[30] = 200 mg/kg intragastric twice a day, time 96 h

In the case of `O=C1CCC(c2noc3c(NC(=O)CN4CCN(C[C@H]5CC[C@H](n6cc(NC(=O)c7cnn8ccc(N9C[C@H]%10C[C@@H]9CO%10)nc78)c(C(F)F)n6)CC5)CC4)cccc23)C(=O)N1` (some centres unmarked) [Hydrochloride of WX015], the “Area under the drug-time curve (0-inf)” value [1, 3] is reported as 1.14 µM·h, the Peak concentration [1, 3] is reported as 0.14 µM and the “Time to peak concentration” value [1, 3] is reported as 4.0 h. The “Area under the drug-time curve (0-inf)” value ([1]; Intravenous injection (0.5 mg/kg)) was 0.21 µM·h, the clearance ([1]; male, cynomolgus monkey, plasma, Intravenous injection (0.5 mg/kg)) was 48.5 mL/min/kg and the Vd ([1]; male, cynomolgus monkey, plasma, Intravenous injection (0.5 mg/kg), read-out: Apparent volume of distribution) was 8.83 L/kg. It also gave a half-life ([1]; male, cynomolgus monkey, plasma, Intravenous injection (0.5 mg/kg), read-out: Elimination half-life (converted)) of 140 min, a bioavailability ([1]; male, cynomolgus monkey, plasma, oral, IV 0.5 mg/kg, intragastric 5 mg/kg, read-out: Bioavailability F) of 55.5% and an Arthritis index [2, 4] of 0. The Foot volume [2, 4] was 3.63 mL, the Hindfoot weight-bearing difference [2, 4] was 0.69 g and the Arthritis index [2, 5] was 1. For the same compound, the Foot volume [2, 5] was 3.88 mL, the Hindfoot weight-bearing difference [2, 5] was 19.09 g and the Arthritis index [2, 6] was 1. The Foot volume [2, 6] was 3.9 mL, the Arthritis index [2, 7] was 1 and the Foot volume [2, 7] was 3.9 mL. It also gave an Arthritis index [2, 8] of 1, a Foot volume [2, 8] of 3.92 mL and an Arthritis index [2, 9] of 0.9. The Foot volume [2, 9] was 3.9 mL, the Hindfoot weight-bearing difference [2, 9] was 13.22 g and the Arthritis index [2, 10] was 0.5. For the same compound, the Foot volume [2, 10] was 3.91 mL, the Hindfoot weight-bearing difference [2, 10] was 6.6 g and the Arthritis index [2, 11] was 0.3. For the same compound, the Foot volume [2, 11] was 3.94 mL, the Hindfoot weight-bearing difference [2, 11] was 4.3 g and the Arthritis index [2, 12] was 0.1. For the same compound, the Foot volume [2, 12] was 3.96 mL, the Hindfoot weight-bearing difference [2, 12] was 2.1 g and the Arthritis index [2, 13] was 0. It also gave a Foot volume [2, 13] of 3.63 mL, a Hindfoot weight-bearing difference [2, 13] of 0.12 g and an Arthritis index [2, 14] of 1. For the same compound, the Foot volume [2, 14] was 3.85 mL, the Hindfoot weight-bearing difference [2, 14] was 16.38 g and the Arthritis index [2, 15] was 1. For the same compound, the Foot volume [2, 15] was 3.88 mL, the Arthritis index [2, 16] was 1 and the Foot volume [2, 16] was 3.9 mL. For the same compound, the Arthritis index [2, 17] was 1, the Foot volume [2, 17] was 3.91 mL and the Arthritis index [2, 18] was 0.6. For the same compound, the Foot volume [2, 18] was 3.88 mL, the Hindfoot weight-bearing difference [2, 18] was 12.2 g and the Arthritis index [2, 19] was 0.3. It also gave a Foot volume [2, 19] of 3.9 mL, a Hindfoot weight-bearing difference [2, 19] of 5.72 g and an Arthritis index [2, 20] of 0.2. For the same compound, the Foot volume [2, 20] was 3.93 mL, the Hindfoot weight-bearing difference [2, 20] was 3 g and the Arthritis index [2, 21] was 0. The Foot volume [2, 21] was 3.95 mL, the Hindfoot weight-bearing difference [2, 21] was 2.01 g and the Arthritis index [2, 22] was 0. The Foot volume [2, 22] was 3.62 mL, the Hindfoot weight-bearing difference [2, 22] was -0.23 g and the Arthritis index [2, 23] was 1. For the same compound, the Foot volume [2, 23] was 3.84 mL, the Hindfoot weight-bearing difference [2, 23] was 14.81 g and the Arthritis index [2, 24] was 1. The Foot volume [2, 24] was 3.88 mL, the Arthritis index [2, 25] was 1 and the Foot volume [2, 25] was 3.89 mL. For the same compound, the Arthritis index [2, 26] was 1, the Foot volume [2, 26] was 3.88 mL and the Arthritis index [2, 27] was 0.5. For the same compound, the Foot volume [2, 27] was 3.87 mL, the Hindfoot weight-bearing difference [2, 27] was 11.32 g and the Arthritis index [2, 28] was 0.2. It also gave a Foot volume [2, 28] of 3.89 mL, a Hindfoot weight-bearing difference [2, 28] of 3.91 g and an Arthritis index [2, 29] of 0. It also gave a Foot volume [2, 29] of 3.91 mL, a Hindfoot weight-bearing difference [2, 29] of 2.1 g and an Arthritis index [2, 30] of 0. For the same compound, the Foot volume [2, 30] was 3.93 mL and the Hindfoot weight-bearing difference [2, 30] was 1.94 g.
